The target in this assay is T1, sGC α1/β1 heterodimer (Homo sapiens, UniProt Q02108+Q02153).
T1 construct: expressed in transfected cells; host or cells: CHO-K1 (clone #7, CHO-K1/sGC)
T1 sequence (Q02108 1-690): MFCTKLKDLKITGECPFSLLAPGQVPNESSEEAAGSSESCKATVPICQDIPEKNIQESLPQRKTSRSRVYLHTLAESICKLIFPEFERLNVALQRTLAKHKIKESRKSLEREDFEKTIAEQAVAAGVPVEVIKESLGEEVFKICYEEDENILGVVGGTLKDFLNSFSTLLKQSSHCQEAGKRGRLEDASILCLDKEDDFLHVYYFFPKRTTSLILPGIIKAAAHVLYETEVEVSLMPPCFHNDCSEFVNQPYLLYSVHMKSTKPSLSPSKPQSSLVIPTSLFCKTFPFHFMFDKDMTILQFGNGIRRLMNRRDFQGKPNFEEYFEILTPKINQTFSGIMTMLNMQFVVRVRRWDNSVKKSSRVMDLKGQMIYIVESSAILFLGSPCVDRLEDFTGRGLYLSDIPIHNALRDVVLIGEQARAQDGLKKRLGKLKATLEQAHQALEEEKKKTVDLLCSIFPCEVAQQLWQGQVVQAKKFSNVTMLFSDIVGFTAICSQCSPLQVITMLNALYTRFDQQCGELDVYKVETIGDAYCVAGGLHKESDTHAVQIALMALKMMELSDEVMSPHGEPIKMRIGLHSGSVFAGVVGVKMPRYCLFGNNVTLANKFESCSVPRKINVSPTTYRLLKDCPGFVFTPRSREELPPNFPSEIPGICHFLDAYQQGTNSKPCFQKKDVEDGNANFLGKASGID
T1 sequence (Q02153 1-619): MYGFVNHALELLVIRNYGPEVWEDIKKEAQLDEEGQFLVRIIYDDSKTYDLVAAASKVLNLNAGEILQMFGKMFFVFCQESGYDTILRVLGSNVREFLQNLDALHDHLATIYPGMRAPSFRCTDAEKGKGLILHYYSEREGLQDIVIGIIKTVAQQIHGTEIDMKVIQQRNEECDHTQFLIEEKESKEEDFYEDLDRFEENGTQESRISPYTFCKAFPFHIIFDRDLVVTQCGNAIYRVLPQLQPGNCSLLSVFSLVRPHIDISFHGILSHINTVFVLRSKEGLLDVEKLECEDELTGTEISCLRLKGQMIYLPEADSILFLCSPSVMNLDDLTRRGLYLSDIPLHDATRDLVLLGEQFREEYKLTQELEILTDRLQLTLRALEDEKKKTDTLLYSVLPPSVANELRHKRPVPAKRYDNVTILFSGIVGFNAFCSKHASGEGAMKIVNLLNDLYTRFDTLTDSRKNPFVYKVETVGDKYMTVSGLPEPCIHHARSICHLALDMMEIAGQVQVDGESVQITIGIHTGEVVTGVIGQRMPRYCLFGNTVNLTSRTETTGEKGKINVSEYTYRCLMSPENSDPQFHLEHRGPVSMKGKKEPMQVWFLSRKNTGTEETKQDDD
Briefly: Cell-based sGC functional assay (CASA assay): cGMP generation in CHO-K1/sGC cells, HTRF detection. Conditions: for EC50: inflection point (IP) of cGMP generation in CHO-K1/sGC cells, 4P fit, activity expressed as percentage of Compound A; for % Act.: percent activation relative to standard Compound A in CHO-K1/sGC cells; for Emax: CHO-K1, percent activation relative to standard Compound A in CHO-K1/sGC cells, read-out: % Act. The text has this:
Biological Assay 1: Cell-Based sGC Functional Assay (CASA Assay)
sGC is a heme-containing enzyme that converts GTP to secondary messenger cGMP. Increases in cGMP levels affect several physiological processes including vasorelaxation through multiple downstream pathways. […] Heme-dependent activators (HDAs) preferentially activate sGC containing a ferrous heme group. To determine the effect of sGC activators on enzyme activity, the CASA assay was developed to monitor the generation of cGMP in a cell line that stably expresses the heterodimeric sGC protein.
A CHO-K1 cell line stably expressing the sGC α1/β1 heterodimer was generated using a standard transfection protocol. CHO-K1 cells were transfected with plasmids pIREShyghsGCal and pIRESneo-hsGCβ1 simultaneously using FUGENE reagent. Clones that stably express both subunits were selected with hygromycin and neomycin for 2 weeks. Clone #7 was chosen for the assay and was designated CHO-K1/sGC. CHO-K1/sGC cells were maintained in F-K12 medium containing 10% heat-inactivated Fetal Bovine Serum (FBS), 100 μg/mL penicillin/streptomycin, 0.5 mg/mL hygromycin and 0.25 mg/mL G418. The cells were then cryopreserved in LN2. On the day of the assay, cells thawed and resuspended in EBSS Assay Buffer (Sigma, E3024) supplemented with 5 mM MgCl2, 10 mM HEPES (4-(2-hydroxyethyl)piperazine-1-ethanesulfonic acid) and 0.05% BSA (bovine serum albumin) (EAB) and cell density was then adjusted to 4×10^5/mL with EAR IBMX (3-isobutyl-1-methylxanthin, 0.5 mM) was added to inhibit degradation of cGMP. Compounds were diluted from DMSO stock solutions and added to the assay at a final DMSO concentration of 2.5%. Cells were incubated with compounds in the presence and absence of 1 μM of Diethylenetriamine/nitric oxide adduct (DETA-NO; Sigma, 17018) for 1 hr at 37° C. At the end of the incubation period, the reaction was terminated and the cells were lysed with the detection reagents from Cisbio Kits. The level of intracellular cGMP was determined using an HTRF-based assay kit (CisBio, 62GM2PEC), which detects the displacement of a fluorescence labeled cGMP from its specific antibody. The cGMP produced by test compounds was directly compared to the maximum cGMP production (this value was set to equal 100% activation.) of the published sGC-HDA Compound A:
[drawing 597] (Example 1 in WO 2010/065275, published Jun. 10, 2010). The test compounds' activities were then expressed as a percentage of Compound A, the standard in every experiment. This percent activation was calculated either in the presence or absence of DETA-NO which was then plotted. IP and maximum fold induction was derived using ADA analysis software for 4P fit.
The compounds in the Examples of the instant invention had inflection points (IP) less than or equal to 10 μM and more particularly less than or equal to about 1 μM.
For orientation: Time-resolved FRET reads energy transfer from a long-lived donor to a nearby acceptor.

Consider nine compounds from US9796733B2, “Imidazo-pyrazine derivatives useful as soluble guanylate cyclase activators” (Merck Sharp & Dohme Corp., priority 2014, dated 2017).

Regarding `CCC1(C2CC2)C(=O)Nc2nc(-c3cn4ccnc4c(Cc4ccccc4)n3)nc(N)c21` (single isomer, unassigned) [Example 77A, 4-amino-2-(8-benzylimidazo[1,2-a]pyrazin-6-yl)-5-cyclopropyl-5-ethyl-5H-pyrrolo[2,3-d]pyrimidin-6(7H)-one], the EC50 came to 0.09 µM and the “% Act.” value is 151%.

In the case of `CCC1(C2CC2)C(=O)Nc2nc(-c3cn4ccnc4c(Cc4ccccc4)n3)nc(N)c21` (single isomer, unassigned) [Example 77B, 4-amino-2-(8-benzylimidazo[1,2-a]pyrazin-6-yl)-5-cyclopropyl-5-ethyl-5H-pyrrolo[2,3-d]pyrimidin-6(7H)-one], the EC50 stood at 0.03 µM and the “% Act.” value is given as 176%.

Turning to `CC(C)C1(C)C(=O)Nc2nc(-c3cn4ccnc4c(Cc4ccccc4)n3)nc(N)c21` (single isomer, unassigned) [Example 80B, 4-amino-2-(8-benzylimidazo[1,2-a]pyrazin-6-yl)-5-isopropyl-5-methyl-5H-pyrrolo[2,3-d]pyrimidin-6(7H)-one], the Emax worked out at 88% and the half-maximal effective concentration (EC50) was determined as 0.253 µM.

Turning to `CC1(C2CC2)C(=O)Nc2nc(-c3cn4ccnc4c(Cc4ccccc4)n3)nc(N)c21` (single isomer, unassigned) [Example 82B, 4-amino-2-(8-benzylimidazo[1,2-a]pyrazin-6-yl)-5-cyclopropyl-5-methyl-5H-pyrrolo[2,3-d]pyrimidin-6(7H)-one], the Emax was determined as 114% and the EC50 was 0.473 µM.

In the case of `CCC1(C)C(=O)Nc2nc(-c3cn4ccnc4c(Cc4ccccc4)n3)nc(N)c21` (single isomer, unassigned) [Example 84B, 4-amino-2-(8-benzylimidazo[1,2-a]pyrazin-6-yl)-5-ethyl-5-methyl-5H-pyrrolo[2,3-d]pyrimidin-6(7H)-one], the Emax is 100% and the EC50 came out at 0.18 µM.

For the compound `CC1(c2ccc(F)cc2)C(=O)Nc2nc(-c3cn4ccnc4c(Cc4cccc(F)c4)n3)nc(N)c21` (single isomer, unassigned) [Example 90B, 4-amino-2-(8-(3-fluorobenzyl)imidazo[1,2-a]pyrazin-6-yl)-5-(4-fluorophenyl)-5-methyl-5H-pyrrolo[2,3-d]pyrimidin-6(7H)-one], the EC50 turned out to be 0.14 µM and the “% Act.” value was determined as 129%.

On to `Nc1nc(-c2cn3ccnc3c(Cc3ccc(F)cc3)n2)nc2c1C(c1ccc(Cl)cn1)(C1CC1)C(=O)N2` (single isomer, unassigned) [Example 108A, 4-amino-5-(5-chloropyridin-2-yl)-5-cyclopropyl-2-(8-(4-fluorobenzyl)imidazo[1,2-a]pyrazin-6-yl)-5H-pyrrolo[2,3-d]pyrimidin-6(7H)-one], for which the response was half-maximal at 0.012 µM (EC50) and the “% Act.” value is 121%.

With `Nc1nc(-c2cn3ccnc3c(Cc3ccc(F)cc3)n2)nc2c1C(c1ccc(Cl)cn1)(C1CC1)C(=O)N2` (single isomer, unassigned) [Example 108B, 4-amino-5-(5-chloropyridin-2-yl)-5-cyclopropyl-2-(8-(4-fluorobenzyl)imidazo[1,2-a]pyrazin-6-yl)-5H-pyrrolo[2,3-d]pyrimidin-6(7H)-one], the midpoint of the response, the EC50, lay at 0.016 µM and the “% Act.” value came out at 79%.

In the case of `Nc1nc(-c2cn3ccnc3c(Cc3ccccc3F)n2)nc2c1C(c1ccc(Cl)cn1)(C1CC1)C(=O)N2` (single isomer, unassigned) [Example 110B, 4-amino-5-(5-chloropyridin-2-yl)-5-cyclopropyl-2-(8-(2-fluorobenzyl)imidazo[1,2-a]pyrazin-6-yl)-5H-pyrrolo[2,3-d]pyrimidin-6(7H)-one], the Emax worked out at 151% and the EC50 came to 0.011 µM.

For orientation: EC50 means the concentration giving half of the maximal effect. Higher therefore signals a need for much substance.
